Assay results as given in PubChem BioAssay (NCI).
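Interpolation was linear, between the two tested concentrations surrounding the appropriate level; five concentrations were tested over 48 hours in 96-well plates. GI50 = concentration required for 50% inhibition of growth. TGI denotes the concentration required for complete inhibition of growth.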

Key:
Assay in all cases: NCI tumour cell line growth inhibition, 48 h
IGROV1 ovarian = system: IGROV1 ovarian
RXF 393 renal = system: RXF 393 renal
OVCAR-4 ovarian = system: OVCAR-4 ovarian
COLO 205 colon = system: COLO 205 colon
HS 578T breast = system: HS 578T breast
SK-MEL-5 melanoma = system: SK-MEL-5 melanoma
KM12 colon = system: KM12 colon
OVCAR-3 ovarian = system: OVCAR-3 ovarian
SN12C renal = system: SN12C renal
HCT-116 colon = system: HCT-116 colon
NCI/ADR-RES ovarian = system: NCI/ADR-RES ovarian
UACC-257 melanoma = system: UACC-257 melanoma
LOX IMVI melanoma = system: LOX IMVI melanoma
MCF7 breast = system: MCF7 breast
M14 melanoma = system: M14 melanoma
T-47D breast = system: T-47D breast
786-0 renal = system: 786-0 renal
SK-MEL-2 melanoma = system: SK-MEL-2 melanoma
MOLT-4 leukemia = system: MOLT-4 leukemia
SK-OV-3 ovarian = system: SK-OV-3 ovarian
MALME-3M melanoma = system: MALME-3M melanoma
NCI-H23 lung = system: NCI-H23 lung
UACC-62 melanoma = system: UACC-62 melanoma
MDA-MB-435 = system: MDA-MB-435
OVCAR-8 ovarian = system: OVCAR-8 ovarian
K-562 leukemia = system: K-562 leukemia
HCT-15 colon = system: HCT-15 colon
SF-268 CNS = system: SF-268 CNS
SF-539 CNS = system: SF-539 CNS
NCI-H226 lung = system: NCI-H226 lung
EKVX NSCLC = system: EKVX NSCLC
RPMI-8226 leukemia = system: RPMI-8226 leukemia
HOP-62 NSCLC = system: HOP-62 NSCLC
SW-620 colon = system: SW-620 colon
UO-31 renal = system: UO-31 renal
DU-145 prostate = system: DU-145 prostate
HL-60(TB) leukemia = system: HL-60(TB) leukemia
OVCAR-5 ovarian = system: OVCAR-5 ovarian
SNB-19 CNS = system: SNB-19 CNS
TK-10 renal = system: TK-10 renal
NCI-H460 lung = system: NCI-H460 lung
NCI-H522 lung = system: NCI-H522 lung
U251 CNS = system: U251 CNS
PC-3 prostate = system: PC-3 prostate
A549 NSCLC = system: A549 NSCLC
MDA-MB-231 breast = system: MDA-MB-231 breast
SR leukemia = system: SR leukemia
SF-295 CNS = system: SF-295 CNS
CAKI-1 renal = system: CAKI-1 renal
SK-MEL-28 melanoma = system: SK-MEL-28 melanoma
A498 renal = system: A498 renal

Nc1cc(N)c2nc(-c3ccccc3)c(Nc3ccc(Cl)c(Cl)c3)nc2c1
GI50 (IGROV1 ovarian): 4.92 µM
TGI (IGROV1 ovarian): 21.1 µM
GI50 (RXF 393 renal): 6.23 µM
TGI (RXF 393 renal): 31.2 µM
GI50 (OVCAR-4 ovarian): 11.1 µM
TGI (OVCAR-4 ovarian): 47.8 µM
GI50 (COLO 205 colon): 11.7 µM
TGI (COLO 205 colon): 31.3 µM
GI50 (HS 578T breast): 18.9 µM
TGI (HS 578T breast): 51.7 µM
GI50 (SK-MEL-5 melanoma): 11 µM
TGI (SK-MEL-5 melanoma): 25.5 µM
GI50 (KM12 colon): 5.89 µM
TGI (KM12 colon): 24.6 µM
GI50 (OVCAR-3 ovarian): 2.93 µM
TGI (OVCAR-3 ovarian): 9.91 µM
GI50 (SN12C renal): 12.7 µM
TGI (SN12C renal): 31.8 µM
GI50 (HCT-116 colon): 10.6 µM
TGI (HCT-116 colon): 53 µM
GI50 (NCI/ADR-RES ovarian): 15.4 µM
TGI (NCI/ADR-RES ovarian): 55.3 µM
GI50 (UACC-257 melanoma): 11.4 µM
TGI (UACC-257 melanoma): 28.2 µM
GI50 (LOX IMVI melanoma): 4.38 µM
TGI (LOX IMVI melanoma): > 100 µM
GI50 (MCF7 breast): 4.96 µM
TGI (MCF7 breast): 21.1 µM
GI50 (M14 melanoma): 14.7 µM
TGI (M14 melanoma): 60 µM
GI50 (T-47D breast): 11.6 µM
TGI (T-47D breast): 31.1 µM
GI50 (786-0 renal): 14.7 µM
TGI (786-0 renal): 37 µM
GI50 (SK-MEL-2 melanoma): 2.32 µM
TGI (SK-MEL-2 melanoma): 19.1 µM
GI50 (MOLT-4 leukemia): 4.05 µM
TGI (MOLT-4 leukemia): > 100 µM
GI50 (SK-OV-3 ovarian): 13.7 µM
TGI (SK-OV-3 ovarian): 31.3 µM
GI50 (MALME-3M melanoma): 10.3 µM
TGI (MALME-3M melanoma): 24.3 µM
GI50 (NCI-H23 lung): 19.1 µM
TGI (NCI-H23 lung): 55.2 µM
GI50 (UACC-62 melanoma): 13.1 µM
TGI (UACC-62 melanoma): 29.9 µM
GI50 (MDA-MB-435): 2.16 µM
TGI (MDA-MB-435): 4.59 µM
GI50 (OVCAR-8 ovarian): 5.18 µM
TGI (OVCAR-8 ovarian): 79.8 µM
GI50 (K-562 leukemia): 3.57 µM
TGI (K-562 leukemia): > 100 µM
GI50 (HCT-15 colon): 21.2 µM
TGI (HCT-15 colon): > 100 µM
GI50 (SF-268 CNS): 12 µM
TGI (SF-268 CNS): 28.6 µM
GI50 (SF-539 CNS): 17.1 µM
TGI (SF-539 CNS): 35.3 µM
GI50 (NCI-H226 lung): 17.5 µM
TGI (NCI-H226 lung): 37.6 µM
GI50 (EKVX NSCLC): 3.83 µM
TGI (EKVX NSCLC): 16.2 µM
GI50 (RPMI-8226 leukemia): 2 µM
TGI (RPMI-8226 leukemia): 4.92 µM
GI50 (HOP-62 NSCLC): 17.5 µM
TGI (HOP-62 NSCLC): 38.4 µM
GI50 (SW-620 colon): 13.3 µM
TGI (SW-620 colon): 51.8 µM
GI50 (UO-31 renal): 11.1 µM
TGI (UO-31 renal): 36.3 µM
GI50 (DU-145 prostate): 16.7 µM
TGI (DU-145 prostate): 32.6 µM
GI50 (HL-60(TB) leukemia): 2.59 µM
TGI (HL-60(TB) leukemia): 71.7 µM
GI50 (OVCAR-5 ovarian): 28 µM
TGI (OVCAR-5 ovarian): 48.7 µM
GI50 (SNB-19 CNS): 12.9 µM
TGI (SNB-19 CNS): 30.2 µM
GI50 (TK-10 renal): 13.7 µM
TGI (TK-10 renal): 30.1 µM
GI50 (NCI-H460 lung): 8.27 µM
TGI (NCI-H460 lung): 22.9 µM
GI50 (NCI-H522 lung): 5.3 µM
TGI (NCI-H522 lung): 21.7 µM
GI50 (U251 CNS): 4.68 µM
TGI (U251 CNS): > 100 µM
GI50 (PC-3 prostate): 3.12 µM
TGI (PC-3 prostate): 15.1 µM
GI50 (A549 NSCLC): 10.8 µM
TGI (A549 NSCLC): 34.7 µM
GI50 (MDA-MB-231 breast): 5.72 µM
TGI (MDA-MB-231 breast): 27.8 µM
GI50 (SR leukemia): 2.56 µM
TGI (SR leukemia): 15.5 µM
GI50 (SF-295 CNS): 12.4 µM
TGI (SF-295 CNS): 27.9 µM
GI50 (CAKI-1 renal): 13.5 µM
TGI (CAKI-1 renal): 29.6 µM
GI50 (SK-MEL-28 melanoma): 16.1 µM
TGI (SK-MEL-28 melanoma): 44.2 µM
GI50 (A498 renal): 12.1 µM
TGI (A498 renal): 26.3 µM
